# Measurements published in the supplement of paper PMC4932681.
# Key:
# T-47D [1] = test: relative IC50 (midpoint of fitted logistic curve, plateau may be below 50% inhibition; CellTiter-Glo viability); higher = less potent; settings: 72 h
# Outline: (§1)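 CellTiter-Glo viability was the readout, taken on a PHERAstar and normalised to vehicle-only and positive controls. It was measured after breast cancer cell lines and their resistant derivatives spent 72 h at 37 °C in 384-well plates containing library drugs at five concentrations spanning a 10 000-fold range, with 1 μM of the selecting drug in the medium of resistant lines. From logistic dose–response fits in the Breeze pipeline came drug sensitivity score, relative IC50 (curve midpoint) and top-dose inhibition.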
# ZR-75-1 Tam2 [2] = test: as above; settings: 4-OH-tamoxifen in medium 1 µM; 72 h
# Outline: as §1
# MCF-7 [3] = test: as above; settings: 72 h
# Outline: as §1
# BT-474 [4] = test: as above; settings: 72 h
# Outline: as §1
# ZR-75-1 Tam1 [5] = test: as above; settings: 4-OH-tamoxifen in medium 1 µM; 72 h
# Outline: as §1
# BT-474 Tam2 [6] = test: as above; settings: 4-OH-tamoxifen in medium 1 µM; 72 h
# Outline: as §1
# ZR-75-1 [7] = test: as above; settings: 72 h
# Outline: as §1
# MCF-7 Tam1 [8] = test: as above; settings: 4-OH-tamoxifen in medium 1 µM; 72 h
# Outline: as §1
# BT-474 Tam1 [9] = test: as above; settings: 4-OH-tamoxifen in medium 1 µM; 72 h
# Outline: as §1
# T-47D Tam1 [10] = test: as above; settings: 4-OH-tamoxifen in medium 1 µM; 72 h
# Outline: as §1
# T-47D [11] = test: drug sensitivity score (DSS) (DSS (dimensionless)); higher = more sensitive; extreme values may be limits of the assay; settings: 72 h
# Procedure: (§2)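 FIMM FO2B library drugs were tested at 5 concentrations (10,000-fold range) for 72 h, with CellTiter-Glo viability normalised to DMSO and benzethonium chloride controls. The Drug Sensitivity Score (DSS) is computed from the fitted logistic dose-response curve (area-based; 0 = inactive). Resistant lines and the 'in 1µM tamoxifen' arms were tested in 1 µM 4-OH-tamoxifen.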
# ZR-75-1 Tam2 [12] = test: as above; settings: 4-OH-tamoxifen in medium 1 µM; 72 h
# Procedure: as §2
# MCF-7 [13] = test: as above; settings: 72 h
# Procedure: as §2
# BT-474 [14] = test: as above; settings: 72 h
# Procedure: as §2
# ZR-75-1 Tam1 [15] = test: as above; settings: 4-OH-tamoxifen in medium 1 µM; 72 h
# Procedure: as §2
# BT-474 Tam2 [16] = test: as above; settings: 4-OH-tamoxifen in medium 1 µM; 72 h
# Procedure: as §2
# ZR-75-1 [17] = test: as above; settings: 72 h
# Procedure: as §2
# T-47D Tam2 [18] = test: as above; settings: 4-OH-tamoxifen in medium 1 µM; 72 h
# Procedure: as §2
# MCF-7 Tam1 [19] = test: as above; settings: 4-OH-tamoxifen in medium 1 µM; 72 h
# Procedure: as §2
# BT-474 Tam1 [20] = test: as above; settings: 4-OH-tamoxifen in medium 1 µM; 72 h
# Procedure: as §2
# T-47D Tam1 [21] = test: as above; settings: 4-OH-tamoxifen in medium 1 µM; 72 h
# Procedure: as §2
# T-47D Tam2 [22] = test: relative IC50 (midpoint of fitted logistic curve, plateau may be below 50% inhibition; CellTiter-Glo viability); higher = less potent; settings: 4-OH-tamoxifen in medium 1 µM; 72 h
# Outline: as §1
Structure (SMILES),relative IC50 (T-47D [1]; 4-OH-tamoxifen in medium 0 µM) [µM],relative IC50 (ZR-75-1 Tam2 [2]) [µM],relative IC50 (MCF-7 [3]; 4-OH-tamoxifen in medium 0 µM) [µM],relative IC50 (MCF-7 [3]; 4-OH-tamoxifen in medium 1 µM) [µM],relative IC50 (BT-474 [4]; 4-OH-tamoxifen in medium 0 µM) [µM],relative IC50 (BT-474 [4]; 4-OH-tamoxifen in medium 1 µM) [µM],relative IC50 (ZR-75-1 Tam1 [5]) [µM],relative IC50 (BT-474 Tam2 [6]) [µM],relative IC50 (ZR-75-1 [7]; 4-OH-tamoxifen in medium 0 µM) [µM],relative IC50 (ZR-75-1 [7]; 4-OH-tamoxifen in medium 1 µM) [µM],relative IC50 (MCF-7 Tam1 [8]) [µM],relative IC50 (BT-474 Tam1 [9]) [µM],relative IC50 (T-47D Tam1 [10]) [µM],drug sensitivity score (T-47D [11]; 4-OH-tamoxifen in medium 0 µM),drug sensitivity score (T-47D [11]; 4-OH-tamoxifen in medium 1 µM),drug sensitivity score (ZR-75-1 Tam2 [12]),drug sensitivity score (MCF-7 [13]; 4-OH-tamoxifen in medium 0 µM),drug sensitivity score (MCF-7 [13]; 4-OH-tamoxifen in medium 1 µM),drug sensitivity score (BT-474 [14]; 4-OH-tamoxifen in medium 0 µM),drug sensitivity score (BT-474 [14]; 4-OH-tamoxifen in medium 1 µM),drug sensitivity score (ZR-75-1 Tam1 [15]),drug sensitivity score (BT-474 Tam2 [16]),drug sensitivity score (ZR-75-1 [17]; 4-OH-tamoxifen in medium 0 µM),drug sensitivity score (ZR-75-1 [17]; 4-OH-tamoxifen in medium 1 µM),drug sensitivity score (T-47D Tam2 [18]),drug sensitivity score (MCF-7 Tam1 [19]),drug sensitivity score (BT-474 Tam1 [20]),drug sensitivity score (T-47D Tam1 [21]),relative IC50 (T-47D [1]; 4-OH-tamoxifen in medium 1 µM) [µM],relative IC50 (T-47D Tam2 [22]) [µM]
CC(O)(CS(=O)(=O)c1ccc(F)cc1)C(=O)Nc1ccc(C#N)c(C(F)(F)F)c1 (centres undefined) [Bicalutamide],> 10,> 10,> 10,> 10,> 10,> 10,> 10,> 10,> 10,> 10,> 10,> 10,> 10,0,0,0,0,0,0,0,0,0,0,0,0.0904,0,0,0,,
CN(Cc1cnc2nc(N)nc(N)c2n1)c1ccc(C(=O)N[C@@H](CCC(=O)O)C(=O)O)cc1 [Methotrexate],> 10,,,,> 10,> 10,,> 10,0.197,> 10,,> 10,> 10,0,0,0.0419,0.338,3.04,0,0,1.07,0,6.76,0,0,0,0,0,> 10,> 10
O=S(=O)(c1cccc2cnccc12)N1CCCNCC1 [Fasudil  (HA-1077)],> 50,> 50,,> 50,> 50,> 50,> 50,> 50,> 50,> 50,> 50,> 50,> 50,0,0.739,0,0.328,0,1.03,5.24,0,6.54,0,0,1.06,0,6.87,1.67,> 50,
CC(=O)Nc1ccc(C(=O)Nc2ccccc2N)cc1 [Tacedinaline (CI-994)],> 1,> 1,> 1,> 1,> 1,> 1,> 1,> 1,> 1,> 1,> 1,> 1,> 1,0,0.0059,0,0,0,0,0,0,0,0,0,0.132,0,0,0,,
CC[C@@H]1C(=O)N(C)c2cnc(Nc3ccc(C(=O)NC4CCN(C)CC4)cc3OC)nc2N1C1CCCC1 [BI 2536],,,0.109,,0.0285,0.0204,,,,,,,0.0678,3.7,0.711,1.18,3.44,10.1,3.73,7.89,1,0.933,2.89,2.08,4.25,0,1.24,3.5,,0.0754
CC(C)C(=O)Nc1ccc([N+](=O)[O-])c(C(F)(F)F)c1 [Flutamide],> 10,> 10,> 10,,> 10,> 10,> 10,> 10,> 10,> 10,> 10,> 10,> 10,0,0,0,0,0.814,0,0,0,0,0,0,0.0387,0,0,0,> 10,
COc1cc2ncnc(Nc3ccc(F)c(Cl)c3)c2cc1OCCCN1CCOCC1 [Gefitinib],,,,4.19,1.03,0.115,,0.176,,,,0.0654,> 10,0.0062,0,1.16,2.5,1.2,9.4,22.7,1.51,20.3,0.0359,1.45,4.57,0,24.9,0,> 10,1.41
CCC/C=C/C=C/C(=O)O[C@H]1/C(=C/C(=O)OC)C[C@H]2C[C@H]([C@@H](C)O)OC(=O)C[C@H](O)C[C@@H]3C[C@H](OC(C)=O)C(C)(C)[C@](O)(C[C@@H]4C/C(=C/C(=O)OC)C[C@H](/C=C/C(C)(C)[C@]1(O)O2)O4)O3 [Bryostatin 1],> 0.1,> 0.1,,,> 0.1,> 0.1,,> 0.1,,> 0.1,,> 0.1,,0,0,0,1.22,0.563,0,0,1.05,0,0.213,0,0,1.73,0,0.0014,> 0.1,> 0.1
